Read-outs that look alike come from different tables or passages of the source. Marks after values point to notes of the source that are not given here.
Compound | Log P (pH 2.7) | Log P (pH 7.5) | Log P (pH 2.3)
CCOC(=O)C(C#N)=C(NC(C)c1csc(Cl)n1)c1cccnc1Cl (stereo not shown) [Compound 322] | 3.3^[a] | – | –
CCOC(=O)C(C#N)=C(NCc1ccc2ccccc2n1)c1cccnc1Cl [Compound 323] | 3.13^[a] | – | –
CC(NC(=C(C#N)C(=O)NCC(F)(F)F)c1cccnc1Cl)c1nccs1 (stereo not shown) [Compound 324] | 2.44^[a] | – | –
CCOC(=O)C(C#N)=C(NC(C)c1ccccn1)c1cn(C)nc1C(F)F (stereo not shown) [Compound 325] | 2.39^[a] | – | –
CCOC(=O)C(C#N)=C(NC(C)c1nccs1)c1cn(C)nc1C(F)F (stereo not shown) [Compound 326] | 2.44^[a] | – | –
CCNC(=O)C(C#N)=C(NC(C)c1nccs1)c1cccnc1Cl (stereo not shown) [Compound 328] | 2.07 | 2.05 | –
CCOC(=O)C(C#N)=C(NC(C)c1ncccn1)c1cccnc1Cl (stereo not shown) [Compound 329] | 2.13^[a] | – | –
CCOC(=O)C(C#N)=C(NC(C)c1ccncn1)c1cccnc1Cl (stereo not shown) [Compound 330] | 2.01^[a] | – | –
COC(=O)C(C#N)=C(NC(C)c1ccc(Cl)cc1)c1cccnc1Cl (stereo not shown) [Compound 332] | 3.24^[a] | – | –
COC(=O)C(C#N)=C(Nc1ccccc1SC)c1cccnc1Cl [Compound 334] | – | 2.82^[c]; 2.82^[b] | 2.82^[c]; 2.82^[b]
COC(=O)C(C#N)=C(NCc1ccc(Cl)nc1)c1cccnc1Cl [Compound 338] | – | 2.1 | 2.11
CCOC(=O)C(C#N)=C(Nc1ccccc1SC)c1cccnc1Cl [Compound 341] | – | 3.17 | 3.32
CCOC(=O)C(C#N)=C(Nc1ccccc1SC)c1ccc(C)nc1Cl [Compound 343] | – | 3.41 | 3.57
CCOC(=O)C(C#N)=C(NC(C)c1ccc(Cl)cc1)c1cccnc1Cl (stereo not shown) [Compound 345] | – | 3.63 | –
CCOC(=O)C(C#N)=C(NC(C)c1ccc(Cl)cc1)c1cn(C)nc1C(F)F (stereo not shown) [Compound 348] | 3.6^[a] | – | –
CCOC(=O)C(C#N)=C(Nc1ccccc1SC)c1cn(C)nc1C(F)F [Compound 349] | 3.13^[a] | – | –

Compound | Log P (pH 2.7) | Log P (pH 7.5) | Log P (pH 2.3)
CCOC(=O)C(C#N)=C(Nc1ccccc1SC)c1ncc(C(F)(F)F)cc1Cl [Compound 350] | 4.26^[a] | – | –
CCOC(=O)C(C#N)=C(NC(C)c1ccc(Cl)cc1)c1ncc(C(F)(F)F)cc1Cl (stereo not shown) [Compound 351] | 4.56^[a] | – | –
CCOC(=O)C(C#N)=C(Nc1ccccc1SC)c1c(C)nn(C)c1F [Compound 354] | 3.21^[a] | – | –
COC(=O)C(C#N)=C(NC(C)c1ccc(Cl)cc1)c1cn(C)nc1C(F)F (stereo not shown) [Compound 356] | 3.31^[a] | – | –
COC(=O)C(C#N)=C(Nc1ccccc1SC)c1cn(C)nc1C(F)F [Compound 357] | 2.8^[a] | – | –
CCOC(=O)C(C#N)=C(Nc1ccccc1SC)c1nsc(Cl)c1Cl [Compound 358] | 4.31^[a] | – | –
CCOC(=O)C(C#N)=C(Nc1ccccc1SC)c1ccc(Cl)nc1Cl [Compound 360] | – | 3.79 | 3.97
CCOC(=O)C(C#N)=C(Nc1ccccc1SC)c1conc1C [Compound 363] | 3.21^[a] | – | –
CCOC(=O)C(C#N)=C(NC(C)c1ccc(Cl)cc1)c1sccc1Br (stereo not shown) [Compound 365] | 4.42^[a] | – | –
CCOC(=O)C(C#N)=C(Nc1ccccc1SC)c1sccc1Br [Compound 366] | 3.96^[a] | – | –
CCOC(=O)C(C#N)=C(NC(C)c1ccc(Cl)cc1)c1c(C)nn(C)c1Cl (stereo not shown) [Compound 367] | 3.8^[a] | – | –
CCC(NC(=C(C#N)C(=O)OC)c1cccnc1Cl)c1cccc(Cl)c1 (stereo not shown) [Compound 372] | 3.58^[a] | – | –
COC(=O)C(C#N)=C(NC(C)c1ccccc1C)c1cccnc1Cl (stereo not shown) [Compound 373] | 3.15^[a] | – | –
COC(=O)C(C#N)=C(NC(C)c1ccc(Cl)cc1Cl)c1cccnc1Cl (stereo not shown) [Compound 374] | 3.73^[a] | – | –
COC(=O)C(C#N)=C(NC(C)c1ccccc1Cl)c1cccnc1Cl (stereo not shown) [Compound 375] | 3.19^[a] | – | –
COC(=O)C(C#N)=C(NC(C)c1cccc(OC)c1)c1cccnc1Cl (stereo not shown) [Compound 377] | 2.89^[a] | – | –

More lines, now with the values ahead:

Log P (pH 2.7) | Log P (pH 7.5) | Log P (pH 2.3) | Compound
1.93^[a] | – | – | COCCNC(=O)C(C#N)=C(NC(C)c1nccs1)c1cccnc1Cl (stereo not shown) [Compound 327]
2.57^[a] | – | – | CCOC(=O)C(C#N)=C(NCC(C)c1nccs1)c1cccnc1Cl (stereo not shown) [Compound 331]
– | 2.56 | 2.58 | COC(=O)C(C#N)=C(Nc1ccccc1OC)c1cccnc1Cl [Compound 335]
– | 2.96 | 2.98 | COC(=O)C(C#N)=C(NCc1ccc(Cl)cc1)c1cccnc1Cl [Compound 336]
3.33^[a] | – | – | COC(=O)C(C#N)=C(NC(C)(C)c1ccc(Cl)cc1)c1cccnc1Cl [Compound 337]
– | 2.83 | 3.04 | COC(=O)C(C#N)=C(Nc1cccc(SC)c1)c1cccnc1Cl [Compound 339]
– | 3.61 | – | CCOC(=O)C(C#N)=C(NC(C)c1ccc(Cl)cc1)c1cccnc1Cl (stereo not shown) [Compound 342]
– | 3.21 | 3.55 | CSc1ccccc1NC(=C(C#N)C(=O)OCC(F)(F)F)c1cccnc1Cl [Compound 344]
– | 3.7 | 3.94 | CCOC(=O)C(C#N)=C(Nc1ccccc1SC)c1cc(Cl)cnc1Cl [Compound 346]
– | 3.94 | 4.15 | CSc1ccccc1NC(=C(C#N)C(=O)OCC(C)C)c1cccnc1Cl [Compound 347]
3.62^[a] | – | – | CCOC(=O)C(C#N)=C(NC(C)c1ccc(Cl)cc1)c1c(C)nn(C)c1F (stereo not shown) [Compound 352]
4.65^[a] | – | – | CCOC(=O)C(C#N)=C(NC(C)c1ccc(Cl)cc1)c1nsc(Cl)c1Cl (stereo not shown) [Compound 355]
3.62^[a] | – | – | CCOC(=O)C(C#N)=C(NC(C)c1ccc(Cl)cc1)c1conc1C (stereo not shown) [Compound 362]
4.47^[a] | – | – | CCOC(=O)C(C#N)=C(NC(C)c1ccc(Cl)cc1)c1sccc1C(F)(F)F (stereo not shown) [Compound 368]
4.01^[a] | – | – | CCOC(=O)C(C#N)=C(Nc1ccccc1SC)c1sccc1C(F)(F)F [Compound 369]
2.98^[a] | – | – | COC(=O)C(C#N)=C(NC(C)(C)c1ccccc1)c1cccnc1Cl [Compound 370]
1.24^[a] | – | – | COC(=O)C(C#N)=C(NC(C)c1ccncc1)c1cccnc1Cl (stereo not shown) [Compound 371]
3.58^[a] | – | – | CCC(NC(=C(C#N)C(=O)OC)c1cccnc1Cl)c1ccc(Cl)cc1 (stereo not shown) [Compound 376]
3.02^[a] | – | – | CCOc1ccc(C(C)NC(=C(C#N)C(=O)OC)c2cccnc2Cl)cc1 (stereo not shown) [Compound 378]
4^[a] | – | – | COC(=O)C(C#N)=C(NC(C)c1ccc(C(C)C)cc1)c1cccnc1Cl (stereo not shown) [Compound 379]
